Results reported in PubChem BioAssay AID248 (DTP/NCI, 2004).
Inconclusive results and toxic doses are left out. Rule as the data show it: active = T/C of 150% or more; inactive = T/C below 125%.

System: L1210 leukemia ip in BDF1 mice, survival T/C
Experiment: NCI In Vivo Anticancer Drug Screen. Data for tumor model L1210 Leukemia (intraperitoneal) in B6D2F1 (BDF1) mice
Conditions: endpoint: mean survival time, higher = longer survival
Outline: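 Each compound was tested against a transplantable tumor grown in mice. The endpoint was survival, with treated animals benchmarked against vehicle controls as a simple ratio.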

[1] = dose: 100.0 mg/kg/injection, schedule: Q04DX002 (ip), vehicle: saline with Tween-80
[2] = dose: 200.0 mg/kg/injection, schedule: Q04DX002 (ip), vehicle: saline with Tween-80
[3] = dose: 400.0 mg/kg/injection, schedule: Q04DX002 (ip), vehicle: saline with Tween-80
[4] = dose: 50.0 mg/kg/injection, schedule: Q01DX001 (ip), vehicle: saline
[5] = dose: 100.0 mg/kg/injection, schedule: Q01DX001 (ip), vehicle: saline
[6] = dose: 200.0 mg/kg/injection, schedule: Q01DX001 (ip), vehicle: saline
[7] = dose: 400.0 mg/kg/injection, schedule: Q01DX001 (ip), vehicle: saline
[8] = dose: 100.0 mg/kg/injection, schedule: Q04DX003 (ip), vehicle: saline with Tween-80
[9] = dose: 200.0 mg/kg/injection, schedule: Q04DX003 (ip), vehicle: saline with Tween-80
[10] = dose: 400.0 mg/kg/injection, schedule: Q04DX003 (ip), vehicle: saline with Tween-80
[11] = dose: 100.0 mg/kg/injection, schedule: Q04DX002 (ip), vehicle: Klucel (hydroxypropylcellulose) (HPC)
[12] = dose: 200.0 mg/kg/injection, schedule: Q04DX002 (ip), vehicle: Klucel (hydroxypropylcellulose) (HPC)
[13] = dose: 400.0 mg/kg/injection, schedule: Q04DX002 (ip), vehicle: Klucel (hydroxypropylcellulose) (HPC)
[14] = dose: 75.0 mg/kg/injection, schedule: Q04DX003 (ip), vehicle: saline
[15] = dose: 25.0 mg/kg/injection, schedule: Q04DX003 (ip), vehicle: saline
[16] = dose: 50.0 mg/kg/injection, schedule: Q04DX003 (ip), vehicle: saline
[17] = dose: 100.0 mg/kg/injection, schedule: Q04DX003 (ip), vehicle: Klucel (hydroxypropylcellulose) (HPC)
[18] = dose: 200.0 mg/kg/injection, schedule: Q04DX003 (ip), vehicle: Klucel (hydroxypropylcellulose) (HPC)
[19] = dose: 400.0 mg/kg/injection, schedule: Q04DX003 (ip), vehicle: Klucel (hydroxypropylcellulose) (HPC)
[20] = dose: 100.0 mg/kg/injection, schedule: Q04DX003 (ip), vehicle: saline

Measured: T/C

Oc1ccc2c(ccc3ccc4ccccc4c32)c1
inactive: dose: 100.0 mg/kg/injection, schedule: Q01DX001 (ip), vehicle: alcohol 103 % of control | dose: 200.0 mg/kg/injection, schedule: Q01DX001 (ip), vehicle: alcohol 100 % of control | dose: 400.0 mg/kg/injection, schedule: Q01DX001 (ip), vehicle: alcohol 95 % of control

COc1ccc(C2NC(=O)CCC2[N+](=O)[O-])cc1OC (configuration not stated)
inactive: [1] 91 % of control | [2] 91 % of control | [3] 94 % of control

O=C(O)/C(=N\Nc1ccccc1)c1ccccc1
inactive: [4] 107 % of control | [5] 96 % of control | [6] 110 % of control | [7] 90 % of control

CC(C)(Oc1cccc2ccccc12)C(=O)O
inactive: [8] 100 % of control | [9] 105 % of control | [10] 93 % of control

CCCCCCCCCCCCCC(O)CC(=O)O (configuration not stated)
inactive: [11] 91 % of control | [12] 91 % of control | [13] 104 % of control

O=C(CCl)NC(O)C(Cl)(Cl)Cl (configuration not stated)
inactive: dose: 1.8 mg/kg/injection, schedule: Q01DX009 (ip), vehicle: saline with Tween-80 100 % of control | dose: 3.7 mg/kg/injection, schedule: Q01DX009 (ip), vehicle: saline with Tween-80 98 % of control | dose: 7.5 mg/kg/injection, schedule: Q01DX009 (ip), vehicle: saline with Tween-80 102 % of control | [14] 101 % of control | dose: 150.0 mg/kg/injection, schedule: Q04DX003 (ip), vehicle: saline 101 % of control | dose: 300.0 mg/kg/injection, schedule: Q04DX003 (ip), vehicle: saline 87 % of control

O=C(N/N=C/c1ccccc1O)C(O)C(O)C(O)C(O)CO (configuration not stated)
inactive: [1] 92 % of control | [2] 106 % of control | [3] 95 % of control

O=C(Cc1cccc2ccccc12)OCCBr
inactive: dose: 222.0 mg/kg/injection, schedule: Q01DX Z (ip), vehicle: methylcellulose (MC) 100 % of control | dose: 333.0 mg/kg/injection, schedule: Q01DX Z (ip), vehicle: methylcellulose (MC) 100 % of control | dose: 500.0 mg/kg/injection, schedule: Q01DX Z (ip), vehicle: methylcellulose (MC) 96 % of control

CCOC(=O)C(OCc1ccccc1)(C(=O)Cl)C(C)C (configuration not stated)
inactive: dose: 6.25 mg/kg/injection, schedule: Q01DX009 (ip), vehicle: saline with Tween-80 98 % of control | dose: 6.25 mg/kg/injection, schedule: Q04DX003 (ip), vehicle: saline 93 % of control | dose: 12.5 mg/kg/injection, schedule: Q01DX009 (ip), vehicle: saline with Tween-80 100 % of control | dose: 12.5 mg/kg/injection, schedule: Q04DX003 (ip), vehicle: saline 97 % of control | dose: 25.0 mg/kg/injection, schedule: Q01DX009 (ip), vehicle: saline with Tween-80 98 % of control | [15] 92 % of control | [16] 103 % of control

Cc1nc(N)cc(Cl)n1
inactive: [17] 101 % of control | [18] 103 % of control | [19] 90 % of control

O=c1ccccn1Cc1ccccc1
inactive: [17] 106 % of control | [18] 117 % of control | [19] 98 % of control

CC(N)Cc1ccccc1 (configuration not stated)
inactive: dose: 1.17 mg/kg/injection, schedule: Q04DX003 (ip), vehicle: saline 98 % of control | dose: 2.34 mg/kg/injection, schedule: Q04DX003 (ip), vehicle: saline 98 % of control | dose: 2.5 mg/kg/injection, schedule: Q04DX003 (ip), vehicle: saline 100 % of control | dose: 4.68 mg/kg/injection, schedule: Q01DX009 (ip), vehicle: saline 94 % of control | dose: 4.68 mg/kg/injection, schedule: Q04DX003 (ip), vehicle: saline 93 % of control | dose: 5.0 mg/kg/injection, schedule: Q04DX003 (ip), vehicle: saline 96 % of control | dose: 6.25 mg/kg/injection, schedule: Q01DX009 (ip), vehicle: saline 103 % of control | dose: 9.37 mg/kg/injection, schedule: Q01DX009 (ip), vehicle: saline 93 % of control | dose: 9.37 mg/kg/injection, schedule: Q04DX003 (ip), vehicle: saline 106 % of control | dose: 10.0 mg/kg/injection, schedule: Q04DX003 (ip), vehicle: saline 97 % of control | dose: 12.5 mg/kg/injection, schedule: Q01DX001 (ip), vehicle: saline 96 % of control | dose: 12.5 mg/kg/injection, schedule: Q01DX009 (ip), vehicle: saline 97 % of control | dose: 18.74 mg/kg/injection, schedule: Q04DX003 (ip), vehicle: saline 107 % of control | dose: 18.75 mg/kg/injection, schedule: Q01DX009 (ip), vehicle: saline 87 % of control | dose: 18.75 mg/kg/injection, schedule: Q04DX003 (ip), vehicle: saline 97 % of control | dose: 20.0 mg/kg/injection, schedule: Q04DX003 (ip), vehicle: saline 97 % of control | dose: 25.0 mg/kg/injection, schedule: Q01DX001 (ip), vehicle: saline 101 % of control | dose: 25.0 mg/kg/injection, schedule: Q01DX009 (ip), vehicle: saline 100 % of control | [15] 100 % of control | dose: 37.48 mg/kg/injection, schedule: Q03HX024 (ip), vehicle: saline 96 % of control | dose: 37.5 mg/kg/injection, schedule: Q01DX009 (ip), vehicle: saline 103 % of control | dose: 37.5 mg/kg/injection, schedule: Q04DX003 (ip), vehicle: saline 108 % of control | dose: 40.0 mg/kg/injection, schedule: Q04DX003 (ip), vehicle: saline 103 % of control | [4] 109 % of control | dose: 50.0 mg/kg/injection, schedule: Q01DX009 (ip), vehicle: saline 101 % of control | [16] 100 % of control | [14] 100 % of control | [5] 102 % of control | [20] 105 % of control

CCOP(=O)(/C=C/c1ccccc1)OCC
inactive: [20] 109 % of control | dose: 200.0 mg/kg/injection, schedule: Q04DX003 (ip), vehicle: saline 98 % of control | dose: 400.0 mg/kg/injection, schedule: Q04DX003 (ip), vehicle: saline 87 % of control

O=C(O)C1CCCCC1C(=O)Nc1ccccc1C(F)(F)F (configuration not stated)
inactive: dose: 100.0 mg/kg/injection, schedule: Q01DX009 (ip), vehicle: saline with Tween-80 98 % of control | [8] 105 % of control | dose: 200.0 mg/kg/injection, schedule: Q01DX009 (ip), vehicle: saline with Tween-80 90 % of control | [9] 100 % of control | dose: 400.0 mg/kg/injection, schedule: Q01DX009 (ip), vehicle: saline with Tween-80 94 % of control | [10] 100 % of control

COc1ccc(S(=O)(=O)F)cc1NC(=O)NCCOc1ccc(-n2cnc3c(=O)[nH]c(N)nc32)cc1
inactive: dose: 100.0 mg/kg/injection, schedule: Q01DX001 (ip), vehicle: Klucel (hydroxypropylcellulose) (HPC) 102 % of control | dose: 200.0 mg/kg/injection, schedule: Q01DX001 (ip), vehicle: Klucel (hydroxypropylcellulose) (HPC) 97 % of control | dose: 400.0 mg/kg/injection, schedule: Q01DX001 (ip), vehicle: Klucel (hydroxypropylcellulose) (HPC) 96 % of control

CCOC(=O)C1OC1(C)C (configuration not stated)
inactive: [11] 88 % of control | [12] 103 % of control | [13] 95 % of control

CCC(=O)Nc1cccc(OC(=O)NC2CCCCC2)c1
inactive: [8] 102 % of control | [9] 98 % of control | [10] 91 % of control

CS(=O)(=O)/C=C(\I)c1ccccc1
inactive: [5] 97 % of control | [6] 97 % of control | [7] 93 % of control

c1ccc(C[Si](Cc2ccccc2)Cc2ccccc2)cc1
inactive: [5] 105 % of control | dose: 100.0 mg/kg/injection, schedule: Q01DX009 (ip), vehicle: saline 88 % of control | [6] 90 % of control | dose: 200.0 mg/kg/injection, schedule: Q01DX009 (ip), vehicle: saline 88 % of control | [7] 104 % of control | dose: 400.0 mg/kg/injection, schedule: Q01DX009 (ip), vehicle: saline 90 % of control
